One series concerns the target ATM (Homo sapiens, UniProt Q13315). To be noted: cited from earlier work.
The next series addresses DNA-PK (Homo sapiens, UniProt P78527). The settings on record: cited from earlier work.
Series [1] in a line: Maximum tolerated dose (MTD) of wortmannin formulations in non-tumor-bearing mice. To be noted: mouse, in vivo, other: injected, mg/kg of wortmannin, in cremophor solution or encapsulated in nanoparticle (2% w/w). The protocol:
MTD, defined as the highest possible dose resulting in no animal deaths and less than 20% weight loss was evaluated for wortmannin formulations. Non-tumor-bearing mice (NOD/SCID, C57BL/6, CB6F1 and CD1) were injected with varying amounts of wortmannin nanoparticle and wortmannin in cremophor normalized to mg wortmannin injected/kg of mice body weight. The animals were weighed and observed daily for any change in physical activity. Weight loss greater than 20% and/or lethargy were interpreted as indications of toxicity and the mice were immediately euthanized.
Table 2 compares the maximum tolerated dose (MTD) of wortmannin in cremophor and wortmannin nanoparticle in different mouse strains.

Series [2] in a line: Toxicity profile (hematologic toxicity, hepatotoxicity) in CD1 mice after tail vein i.v. injection. It is filed as in vivo. To be noted: single tail vein i.v.; for Hematologic Toxicity: Monocytes: normal range 0.1-1.5; for Hematologic Toxicity: Lymphocytes: normal range 0.5-5; for Hematologic Toxicity: Granulocytes: normal range 1.2-8; for Hematologic Toxicity: WBC: normal range 3.5-10; for Hepatotoxicity: ALT / Hepatotoxicity: AST: plasma, normal range 40-50 U/L. The protocol:
CD1 mice were given tail vein i.v. injection with different wortmannin formulations (wortmannin nanoparticle or wortmannin in cremophor) at the indicated doses (⅕^th the MTD or 1/10th the MTD). After 24 h, submandibular bleeding was performed. Blood (100-200 ul) was collected in heparin coated tubes to prevent coagulation. Whole blood samples were immediately submitted for blood toxicity to the Animal Clinical Laboratory Core Facility at UNC. For liver toxicity studies, blood samples were centrifuged (15000×g for 10 minutes) to separate blood cells from the plasma and samples were submitted for analysis.
Table 3 and 4 show the toxicity profile in mice of wortmannin in cremophor and wortmannin nanoparticle.
Table 3 and 4. Toxicity profile in CD1 mice post i.v. injection of wortmannin formulations. Mice were treated with indicated doses of wortmannin or wortmannin nanoparticle containing an equivalent dose of wortmannin (2% w/w). (Single tail vein i.v. injection, toxicity profile 3 d post injection).

The conditions of series [3]: cited from earlier work.
In a further series the test system is cancer cells. To be noted: Bae et al. 2007, FIG. 6; cited from earlier work.
Setting [4] is: 1/10th MTD of Wtmn (0.07 mg/kg).

ATM, sequence (Q13315 whole entry, species assumed): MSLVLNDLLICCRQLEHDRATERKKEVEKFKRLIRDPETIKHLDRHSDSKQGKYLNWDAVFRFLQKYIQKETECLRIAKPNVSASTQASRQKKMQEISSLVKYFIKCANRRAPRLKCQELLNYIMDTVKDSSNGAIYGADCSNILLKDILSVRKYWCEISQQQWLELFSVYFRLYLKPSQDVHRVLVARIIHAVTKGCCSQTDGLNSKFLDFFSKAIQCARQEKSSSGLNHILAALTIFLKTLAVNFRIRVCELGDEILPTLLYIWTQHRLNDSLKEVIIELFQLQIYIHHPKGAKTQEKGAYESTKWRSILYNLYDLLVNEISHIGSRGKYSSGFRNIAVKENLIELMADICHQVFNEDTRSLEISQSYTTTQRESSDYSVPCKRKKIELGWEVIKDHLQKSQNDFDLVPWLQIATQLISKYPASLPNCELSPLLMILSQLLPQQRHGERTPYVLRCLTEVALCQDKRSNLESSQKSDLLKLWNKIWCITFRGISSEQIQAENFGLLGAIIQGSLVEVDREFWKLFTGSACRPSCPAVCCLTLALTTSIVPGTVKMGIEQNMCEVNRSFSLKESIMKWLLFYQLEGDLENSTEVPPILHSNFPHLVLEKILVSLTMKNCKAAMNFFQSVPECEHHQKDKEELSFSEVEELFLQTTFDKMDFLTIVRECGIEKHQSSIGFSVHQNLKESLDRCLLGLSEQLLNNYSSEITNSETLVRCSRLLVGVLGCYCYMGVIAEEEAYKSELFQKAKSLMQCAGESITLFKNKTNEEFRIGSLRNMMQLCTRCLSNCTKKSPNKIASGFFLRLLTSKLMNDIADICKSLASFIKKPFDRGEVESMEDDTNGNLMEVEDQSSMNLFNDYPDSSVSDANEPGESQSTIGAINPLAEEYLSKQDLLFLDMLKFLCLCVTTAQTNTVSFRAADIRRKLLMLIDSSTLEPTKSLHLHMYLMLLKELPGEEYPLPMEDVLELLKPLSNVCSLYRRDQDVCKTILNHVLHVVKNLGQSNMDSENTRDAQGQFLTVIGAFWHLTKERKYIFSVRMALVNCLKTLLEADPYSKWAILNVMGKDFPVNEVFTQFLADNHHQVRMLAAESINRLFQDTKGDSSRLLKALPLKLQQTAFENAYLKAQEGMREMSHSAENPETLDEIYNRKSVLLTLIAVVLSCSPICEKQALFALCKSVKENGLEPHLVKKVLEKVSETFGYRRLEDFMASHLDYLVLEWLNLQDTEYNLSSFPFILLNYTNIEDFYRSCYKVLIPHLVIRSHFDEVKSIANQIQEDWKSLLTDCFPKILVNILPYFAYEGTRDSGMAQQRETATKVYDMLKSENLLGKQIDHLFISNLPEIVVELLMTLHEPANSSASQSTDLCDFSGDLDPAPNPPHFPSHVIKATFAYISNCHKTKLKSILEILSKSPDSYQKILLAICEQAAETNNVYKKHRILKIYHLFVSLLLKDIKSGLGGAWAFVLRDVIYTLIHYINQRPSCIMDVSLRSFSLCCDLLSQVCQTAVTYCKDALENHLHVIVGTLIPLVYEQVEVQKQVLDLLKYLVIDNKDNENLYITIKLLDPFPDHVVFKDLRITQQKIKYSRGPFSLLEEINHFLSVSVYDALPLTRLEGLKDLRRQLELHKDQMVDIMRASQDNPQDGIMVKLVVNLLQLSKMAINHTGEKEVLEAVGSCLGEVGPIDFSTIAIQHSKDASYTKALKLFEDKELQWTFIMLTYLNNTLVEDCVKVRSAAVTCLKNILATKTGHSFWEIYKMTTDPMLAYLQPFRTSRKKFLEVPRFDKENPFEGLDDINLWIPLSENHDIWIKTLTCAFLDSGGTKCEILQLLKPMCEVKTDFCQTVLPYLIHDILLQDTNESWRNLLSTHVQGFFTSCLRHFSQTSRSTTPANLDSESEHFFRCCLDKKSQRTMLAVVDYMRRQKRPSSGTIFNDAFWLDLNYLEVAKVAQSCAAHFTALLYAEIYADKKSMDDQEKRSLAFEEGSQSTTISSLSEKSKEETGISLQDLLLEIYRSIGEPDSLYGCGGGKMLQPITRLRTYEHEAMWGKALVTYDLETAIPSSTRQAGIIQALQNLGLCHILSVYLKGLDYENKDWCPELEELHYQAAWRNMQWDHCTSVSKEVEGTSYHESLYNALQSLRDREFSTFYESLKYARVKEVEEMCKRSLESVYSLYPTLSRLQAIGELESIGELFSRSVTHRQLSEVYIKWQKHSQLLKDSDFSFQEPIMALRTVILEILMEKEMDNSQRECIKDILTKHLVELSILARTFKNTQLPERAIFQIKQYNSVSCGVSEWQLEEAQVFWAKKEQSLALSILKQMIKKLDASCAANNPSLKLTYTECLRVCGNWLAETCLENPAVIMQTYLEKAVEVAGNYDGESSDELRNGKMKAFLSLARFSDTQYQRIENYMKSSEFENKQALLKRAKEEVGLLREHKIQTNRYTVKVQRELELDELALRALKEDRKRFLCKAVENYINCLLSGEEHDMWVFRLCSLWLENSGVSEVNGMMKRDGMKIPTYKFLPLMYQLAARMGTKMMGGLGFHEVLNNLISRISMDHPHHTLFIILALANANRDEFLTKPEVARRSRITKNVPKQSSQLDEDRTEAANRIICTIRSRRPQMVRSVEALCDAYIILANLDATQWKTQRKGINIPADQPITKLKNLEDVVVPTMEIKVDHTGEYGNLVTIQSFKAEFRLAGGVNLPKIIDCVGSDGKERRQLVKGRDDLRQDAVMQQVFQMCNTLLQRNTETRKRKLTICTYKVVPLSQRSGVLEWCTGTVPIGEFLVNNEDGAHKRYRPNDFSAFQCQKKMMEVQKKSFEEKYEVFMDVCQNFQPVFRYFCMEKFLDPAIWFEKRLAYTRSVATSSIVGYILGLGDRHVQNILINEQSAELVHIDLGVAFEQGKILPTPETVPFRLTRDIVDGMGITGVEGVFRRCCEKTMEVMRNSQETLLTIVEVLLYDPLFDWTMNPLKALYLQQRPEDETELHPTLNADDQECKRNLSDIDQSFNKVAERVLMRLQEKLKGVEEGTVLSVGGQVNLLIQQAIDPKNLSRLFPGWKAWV

On to `O=c1cc(-c2cccc3c2Sc2ccccc2S3)oc(N2CCOCC2)c1` [KU-55933, 2-morpholin-4-yl-6-thianthren-1-yl-pyran-4-one], for which, on ATM, the “inhibits ATM” value was “low nanomolar concentrations”.

In the case of `O=c1cc(N2CCOCC2)oc2c(-c3cccc4c3sc3ccccc34)cccc12` [NU7441], at DNA-PK, the 50% inhibitory concentration (IC50) was 13 nM.

Take `COC[C@H]1OC(=O)c2coc3c2[C@@]1(C)C1=C(C3=O)[C@@H]2CCC(=O)[C@@]2(C)C[C@H]1OC(C)=O` [Wortmannin, wortmannin]: the MTD in series [1] (C57BL/6 (Black) mice) turned out to be 0.7 mg/kg. In series [1] (CB6F1 (Brown) mice), this compound registered an MTD of 0.5 mg/kg. In addition, in series [1] (CD1 (White) mice), the maximum tolerated dose (MTD) was determined as 0.7 mg/kg. This compound yielded an MTD in series [1] (NOD/SCID mice) of 0.7 mg/kg. In series [2] (1/5th MTD of Wtmn (0.14 mg/kg)), the “Hematologic Toxicity: Monocytes” value was 0.55 ± 0.07 103/μl, the “Hematologic Toxicity: Lymphocytes” value is recorded as 0.4 ± 0.42 103/μl, the “Hematologic Toxicity: Granulocytes” value is 0.8 ± 0.14 103/μl and the “Hematologic Toxicity: WBC” value is listed as 2.8 ± 0.28 103/μl. Further, in series [2] (1/5th MTD of Wtmn (0.14 mg/kg)), the “Hepatotoxicity: ALT” value is on record as 134 ± 17 U/L and the “Hepatotoxicity: AST” value was 44 ± 3 U/L. In series [2] (setting [4]), the “Hematologic Toxicity: Monocytes” value is given as 0.8 ± 0.42 103/μl, the “Hematologic Toxicity: Lymphocytes” value is recorded as 0.9 ± 0.28 103/μl, the “Hematologic Toxicity: Granulocytes” value is given as 2.4 ± 0.11 103/μl and the “Hematologic Toxicity: WBC” value is listed as 4.3 ± 0.13 103/μl. Also, in series [2] (setting [4]), the “Hepatotoxicity: ALT” value stood at 64 ± 11 U/L and the “Hepatotoxicity: AST” value was found to be 40 ± 7 U/L. Moreover, the half-life in serum result in series [3] is “approximately 10 minutes”. Further, the “cytotoxicity against cancer cells” value in the series with cancer cells was “unexpectedly low cytotoxicity”.

The record behind these values is patent publication US20140017165A1, “DNA REPAIR ENZYME INHIBITOR NANOPARTICLES AND USES THEREOF” (priority 2011, published 2014).
